± gives the expanded uncertainty stated by the source.
How the values were obtained:
[1] = DSC
[2] = Molar enthalpy of transition or fusion; conditions: Crystal; DSC

With `CNC(=O)c1ccc(N2C(=S)N(c3ccc(C#N)c(C(F)(F)F)c3)C(=O)C2(C)C)cc1F` [Enzalutamide] the Triple point temperature ([1]; Crystal) was 469.15 ± 1 K, the Glass transition temperature ([1]; Glass) was 85.00 ± 1 °C and the “Molar enthalpy of transition or fusion” value [2] was 8.61 ± 0.222 kcal/mol.
